{
  "source": "paper doi:10.1101/2023.10.20.563248v1",
  "about": "(biorxiv, 2023)",
  "key": {"[1]": {"target": "MST4 (full-length, NanoLuc fusion) (Homo sapiens, UniProt Q9P289)", "sequence (Q9P289 whole entry, the tested form may be a part)": "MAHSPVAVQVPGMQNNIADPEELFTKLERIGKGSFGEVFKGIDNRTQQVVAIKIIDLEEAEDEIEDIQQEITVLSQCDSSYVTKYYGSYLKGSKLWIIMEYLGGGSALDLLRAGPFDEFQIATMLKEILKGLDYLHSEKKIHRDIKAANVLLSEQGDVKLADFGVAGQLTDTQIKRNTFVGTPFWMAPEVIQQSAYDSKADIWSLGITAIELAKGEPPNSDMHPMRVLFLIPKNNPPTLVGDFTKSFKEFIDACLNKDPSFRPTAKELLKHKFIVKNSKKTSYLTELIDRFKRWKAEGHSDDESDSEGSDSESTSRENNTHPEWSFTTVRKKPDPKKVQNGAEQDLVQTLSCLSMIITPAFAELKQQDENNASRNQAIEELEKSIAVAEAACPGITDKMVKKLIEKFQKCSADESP", "assay": "NanoBRET tracer displacement, HEK293T", "assay_type": "cell-based", "conditions": "intact cells; […] °C, […] h; competitive with tracer"}, "[2]": {"target": "MST3 (full-length, NanoLuc fusion) (Homo sapiens, UniProt Q9Y6E0)", "sequence (Q9Y6E0 whole entry, the tested form may be a part)": "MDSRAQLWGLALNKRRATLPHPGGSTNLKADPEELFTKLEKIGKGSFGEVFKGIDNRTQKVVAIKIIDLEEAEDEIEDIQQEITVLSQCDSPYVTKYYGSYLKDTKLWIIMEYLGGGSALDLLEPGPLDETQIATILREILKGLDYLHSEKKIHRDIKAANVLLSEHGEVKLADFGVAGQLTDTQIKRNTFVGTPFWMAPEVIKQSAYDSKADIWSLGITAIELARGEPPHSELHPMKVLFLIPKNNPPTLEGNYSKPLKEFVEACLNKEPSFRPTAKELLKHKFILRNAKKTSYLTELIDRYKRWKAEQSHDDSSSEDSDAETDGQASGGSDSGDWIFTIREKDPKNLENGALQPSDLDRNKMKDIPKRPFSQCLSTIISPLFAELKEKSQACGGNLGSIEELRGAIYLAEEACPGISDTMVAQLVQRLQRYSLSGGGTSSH", "assay": "cell-based"}, "[3]": {"target": "MST2 (full-length, NanoLuc fusion) (Homo sapiens, UniProt Q13188)", "sequence (Q13188 whole entry, the tested form may be a part)": "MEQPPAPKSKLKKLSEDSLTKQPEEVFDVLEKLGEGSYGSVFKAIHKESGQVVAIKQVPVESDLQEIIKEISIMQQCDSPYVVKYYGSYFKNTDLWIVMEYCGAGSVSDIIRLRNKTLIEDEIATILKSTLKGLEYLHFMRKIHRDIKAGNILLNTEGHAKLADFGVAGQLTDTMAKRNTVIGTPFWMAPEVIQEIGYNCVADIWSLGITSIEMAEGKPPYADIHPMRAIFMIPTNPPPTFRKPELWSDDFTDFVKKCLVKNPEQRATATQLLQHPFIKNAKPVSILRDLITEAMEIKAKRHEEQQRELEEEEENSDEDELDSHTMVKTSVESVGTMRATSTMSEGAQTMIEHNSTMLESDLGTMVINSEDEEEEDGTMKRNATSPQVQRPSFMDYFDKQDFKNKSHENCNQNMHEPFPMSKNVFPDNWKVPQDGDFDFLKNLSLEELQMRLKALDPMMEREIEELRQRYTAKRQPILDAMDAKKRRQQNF", "assay": "NanoBRET tracer displacement, HEK293T", "assay_type": "cell-based", "conditions": "intact cells; […] °C, […] h; competitive with tracer"}, "[4]": {"target": "MST1 (full-length, NanoLuc fusion) (Homo sapiens, UniProt Q13043)", "sequence (Q13043 whole entry, the tested form may be a part)": "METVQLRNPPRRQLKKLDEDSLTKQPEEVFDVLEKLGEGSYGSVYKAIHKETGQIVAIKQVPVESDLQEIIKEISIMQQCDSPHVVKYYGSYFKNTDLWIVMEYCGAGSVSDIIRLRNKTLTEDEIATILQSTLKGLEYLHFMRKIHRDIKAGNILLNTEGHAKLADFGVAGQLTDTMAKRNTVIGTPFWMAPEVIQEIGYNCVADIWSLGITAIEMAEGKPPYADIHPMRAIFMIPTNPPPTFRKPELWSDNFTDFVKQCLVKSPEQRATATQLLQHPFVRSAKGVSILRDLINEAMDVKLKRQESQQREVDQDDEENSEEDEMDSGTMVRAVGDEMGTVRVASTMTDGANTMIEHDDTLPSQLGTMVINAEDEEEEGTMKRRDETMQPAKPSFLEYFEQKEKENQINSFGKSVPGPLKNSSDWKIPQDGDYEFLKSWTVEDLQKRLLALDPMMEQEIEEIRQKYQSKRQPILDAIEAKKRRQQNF", "assay": "NanoBRET tracer displacement, HEK293T", "assay_type": "cell-based", "conditions": "intact cells; […] °C, […] h; competitive with tracer"}},
  "data": [
    {"smiles": "O=C1NCCCCCCNc2nc(c3ccccc3n2)Nc2cc1[nH]n2", "note": "[21e, (Z)-3^1H-2,5,12-triaza-1(4,2)-quinazolina-3(3,5)-pyrazolacyclododecaphan-4-one]", "values": [
      {"measurement": "EC50", "setting": "[1]", "value": 2400, "unit": "nM"},
      {"measurement": "EC50", "setting": "[2]", "value": 1800, "unit": "nM"}
    ]},
    {"smiles": "N#CCc1ccc(Nc2nccc(Nc3cc(C4CC4)[nH]n3)n2)cc1", "note": "[compound 1, 1]", "values": [
      {"measurement": "EC50", "setting": "[3]", "value": 110, "unit": "nM"},
      {"measurement": "EC50", "setting": "[4]", "value": 200, "unit": "nM"}
    ]}
  ]
}
